Activity calls are given as the source filed them. No cut-off for these calls is given here.
How the values were obtained:
HepG2 = assay: Antiproliferative activity against human HepG2 cells assessed as reduction in cell viability incubated for 24 hrs by MTT assay; assay type: functional, cell-based; settings: HepG2, 24 h
HCT-116 = assay: Antiproliferative activity against human HCT-116 cells assessed as reduction in cell viability incubated for 24 hrs by MTT assay; assay type: functional, cell-based; settings: HCT-116, 24 h
[1] = Inhibition of TrxR in human HT-29 cells incubated for 90 mins in presence of insulin, NADPH and Trx by DTNB reagent based assay; assay type: cell-based
[2] = Inhibition of TrxR in human HT-29 cells incubated for 30 mins in presence of insulin, NADPH and Trx by DTNB reagent based assay; assay type: cell-based
HT-29 [3] = assay: Antiproliferative activity against human HT-29 cells assessed as reduction in cell viability incubated for 24 hrs by MTT assay; assay type: functional, cell-based; settings: HT-29, 24 h
MCF7 = assay: Antiproliferative activity against human MCF7 cells assessed as reduction in cell viability incubated for 24 hrs by MTT assay; assay type: functional, cell-based; settings: MCF7, 24 h
[4] = Inhibition of TrxR in human HT-29 cells incubated for 60 mins in presence of insulin, NADPH and Trx by DTNB reagent based assay; assay type: cell-based
[5] = molecular target: T1, Thioredoxin (Homo sapiens) (UniProt P10599); assay: Inhibition of Trx in human HT-29 cells incubated for 24 hrs in presence of insulin, NADPH and DTT; assay type: cell-based
T1 sequence (whole entry): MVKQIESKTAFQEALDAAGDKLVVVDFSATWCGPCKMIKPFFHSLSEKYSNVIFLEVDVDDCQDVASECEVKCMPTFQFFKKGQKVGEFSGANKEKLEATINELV

HT-29 [6] = assay: Inhibition of GPx in human HT-29 cells incubated for 24 hrs in presence of GSH, NADPH and GR measured at 10 secs interval for 4 mins; assay type: cell-based; settings: time 1444.0 min
HT-29 [7] = assay: Inhibition of TrxR in human HT-29 cells incubated for 24 hrs in presence of insulin, NADPH and Trx by DTNB reagent based assay; assay type: cell-based
L02 = assay: Cytotoxicity against human L02 cells assessed as cell viability incubated for 24 hrs by MTT assay; assay type: cell-based; settings: L02, 24 h
HK-2 = assay: Cytotoxicity against human HK2 cells assessed as cell viability incubated for 24 hrs by MTT assay; assay type: cell-based; settings: HK-2, 24 h
[8] = Inhibition of Escherichia coli Trx incubated for 1.5 hrs in presence of DTT and insulin
[9] = Inhibition of TrxR (unknown origin) in presence of NADPH by Ellman's method; design: species or system Homo sapiens
[10] = molecular target: T2, Glutathione reductase, mitochondrial (Homo sapiens) (UniProt P00390); assay: Inhibition of GR in human HT-29 cells incubated for 24 hrs in presence of GSSG and NADPH; assay type: cell-based
T2 sequence (whole entry): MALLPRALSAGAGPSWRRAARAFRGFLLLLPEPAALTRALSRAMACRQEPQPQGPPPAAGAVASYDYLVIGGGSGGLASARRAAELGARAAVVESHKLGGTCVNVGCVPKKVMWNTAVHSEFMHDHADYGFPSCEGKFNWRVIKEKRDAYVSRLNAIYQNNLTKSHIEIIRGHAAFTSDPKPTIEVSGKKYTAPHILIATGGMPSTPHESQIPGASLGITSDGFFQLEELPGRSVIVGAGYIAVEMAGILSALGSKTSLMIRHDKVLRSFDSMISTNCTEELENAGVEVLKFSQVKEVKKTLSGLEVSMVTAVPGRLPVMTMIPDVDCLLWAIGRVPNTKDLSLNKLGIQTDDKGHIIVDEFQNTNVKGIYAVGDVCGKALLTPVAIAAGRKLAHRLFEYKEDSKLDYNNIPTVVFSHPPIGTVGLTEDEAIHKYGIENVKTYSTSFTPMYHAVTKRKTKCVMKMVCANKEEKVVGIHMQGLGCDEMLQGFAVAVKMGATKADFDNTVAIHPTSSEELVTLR

[11] = Covalent inhibition of TrxR (unknown origin) assessed as covalent bond formation incubated up to 30 mins in presence of NADPH by Ellman's method; design: species or system Homo sapiens

IC50 (HepG2)	IC50 (HCT-116)	IC50 (HT-29 [3])	IC50 (MCF7)	Structure (SMILES)	further results
520 nM	330 nM	780 nM	1060 nM	C=CC(=O)O[C@H]1C=CC(=O)[C@]2(C)[C@H]3CC[C@]4(C)C([C@H](C)[C@H]5CC(C)=C(C)C(=O)O5)=C[C@H](OC(C)=O)[C@@]4(O)[C@@H]3C[C@H]3O[C@]132	IC50 [1]: 2060 nM; IC50 [2]: 3910 nM; IC50 [4]: 2850 nM
2850 nM	2370 nM	2480 nM	6320 nM	CC(=O)O[C@H]1C=C([C@H](C)[C@H]2CC(C)=C(C)C(=O)O2)[C@@]2(C)CC[C@H]3[C@@H](C[C@H]4O[C@]45[C@@H](O)C=CC(=O)[C@]35C)[C@]12O	inhibition [5]: Active; inhibition (HT-29 [6]): Active; inhibition (HT-29 [7]): Active; IC50 (L02): 8210 nM; IC50 (HK-2): 6410 nM; IC50 [1]: 2640 nM; IC50 [2]: 4920 nM; IC50 [8]: > 2500 nM; IC50 [4]: 3350 nM; IC50 [9]: 2640 nM; inhibition [10]: Active; Ki [11]: 9120 nM
–	–	–	–	CC(=O)O[C@H]1C=C([C@H](C)[C@H]2CC(C)=C(C)C(=O)O2)[C@@]2(C)CC[C@H]3[C@@H](C[C@H]4O[C@]45[C@@H](OC(=O)CCC(=O)N(C)C)C=CC(=O)[C@]35C)[C@]12O	IC50 [1]: 2150 nM; IC50 [2]: 3810 nM; IC50 [4]: 2910 nM
1660 nM	570 nM	1080 nM	4810 nM	CCC(C)C(NC(=O)OC(C)(C)C)C(=O)O[C@H]1C=CC(=O)[C@]2(C)[C@H]3CC[C@]4(C)C([C@H](C)[C@H]5CC(C)=C(C)C(=O)O5)=C[C@H](OC(C)=O)[C@@]4(O)[C@@H]3C[C@H]3O[C@]132 (stereo partly drawn)	–
640 nM	470 nM	630 nM	2160 nM	CC(=O)O[C@H]1C=C([C@H](C)[C@H]2CC(C)=C(C)C(=O)O2)[C@@]2(C)CC[C@H]3[C@@H](C[C@H]4O[C@]45[C@@H](OC(=O)CNC(=O)OC(C)(C)C)C=CC(=O)[C@]35C)[C@]12O	–
1660 nM	570 nM	1080 nM	4810 nM	CCC(=O)O[C@H]1C=CC(=O)[C@]2(C)[C@H]3CC[C@]4(C)C([C@H](C)[C@H]5CC(C)=C(C)C(=O)O5)=C[C@H](OC(C)=O)[C@@]4(O)[C@@H]3C[C@H]3O[C@]132	–
610 nM	1030 nM	720 nM	1580 nM	CC(=O)O[C@H]1C=C([C@H](C)[C@H]2CC(C)=C(C)C(=O)O2)[C@@]2(C)CC[C@H]3[C@@H](C[C@H]4O[C@]45[C@@H](OC(=O)/C=C/c4ccc(F)cc4)C=CC(=O)[C@]35C)[C@]12O	–
1060 nM	670 nM	1010 nM	2100 nM	CC(=O)O[C@H]1C=C([C@H](C)[C@H]2CC(C)=C(C)C(=O)O2)[C@@]2(C)CC[C@H]3[C@@H](C[C@H]4O[C@]45[C@@H](OC(=O)C4CCCN4C(=O)OC(C)(C)C)C=CC(=O)[C@]35C)[C@]12O (stereo partly drawn)	–
2910 nM	3870 nM	2390 nM	4080 nM	CC(=O)O[C@H]1C=C([C@H](C)[C@H]2CC(C)=C(C)C(=O)O2)[C@@]2(C)CC[C@H]3[C@@H](C[C@H]4O[C@]45[C@@H](OC(=O)c4cccs4)C=CC(=O)[C@]35C)[C@]12O	–
> 20000 nM	> 20000 nM	> 20000 nM	> 20000 nM	O=c1c(O)c(-c2cc(O)c(O)c(O)c2)oc2cc(O)cc(O)c12 [MYRICETIN]	IC50 (L02): > 20000 nM; IC50 (HK-2): > 20000 nM; IC50 [1]: 650 nM; IC50 [2]: 930 nM; IC50 [4]: 720 nM
2810 nM	1950 nM	1790 nM	4330 nM	COC(=O)O[C@H]1C=CC(=O)[C@]2(C)[C@H]3CC[C@]4(C)C([C@H](C)[C@H]5CC(C)=C(C)C(=O)O5)=C[C@H](OC(C)=O)[C@@]4(O)[C@@H]3C[C@H]3O[C@]132	–
1060 nM	670 nM	1010 nM	2100 nM	CC(=O)O[C@H]1C=C([C@H](C)[C@H]2CC(C)=C(C)C(=O)O2)[C@@]2(C)CC[C@H]3[C@@H](C[C@H]4O[C@]45[C@@H](OC(=O)N(C)C)C=CC(=O)[C@]35C)[C@]12O	–
1570 nM	600 nM	800 nM	3050 nM	CC(=O)O[C@H]1C=C([C@H](C)[C@H]2CC(C)=C(C)C(=O)O2)[C@@]2(C)CC[C@H]3[C@@H](C[C@H]4O[C@]45[C@@H](OC(C)=O)C=CC(=O)[C@]35C)[C@]12O	–
1230 nM	890 nM	1120 nM	2140 nM	CC(=O)O[C@H]1C=C([C@H](C)[C@H]2CC(C)=C(C)C(=O)O2)[C@@]2(C)CC[C@H]3[C@@H](C[C@H]4O[C@]45[C@@H](OC(=O)N4CCCC4)C=CC(=O)[C@]35C)[C@]12O	–
260 nM	280 nM	460 nM	750 nM	CC(=O)O[C@H]1C=C([C@H](C)[C@H]2CC(C)=C(C)C(=O)O2)[C@@]2(C)CC[C@H]3[C@@H](C[C@H]4O[C@]45[C@@H](OC(=O)C=C(C)C)C=CC(=O)[C@]35C)[C@]12O	–
410 nM	730 nM	1380 nM	4310 nM	CC(=O)O[C@H]1C=C([C@H](C)[C@H]2CC(C)=C(C)C(=O)O2)[C@@]2(C)CC[C@H]3[C@@H](C[C@H]4O[C@]45[C@@H](OC(=O)N4CCCCC4)C=CC(=O)[C@]35C)[C@]12O	–
2810 nM	1950 nM	1790 nM	4330 nM	CC(=O)O[C@H]1C=C([C@H](C)[C@H]2CC(C)=C(C)C(=O)O2)[C@@]2(C)CC[C@H]3[C@@H](C[C@H]4O[C@]45[C@@H](OC(=O)C(C)NC(=O)OC(C)(C)C)C=CC(=O)[C@]35C)[C@]12O (stereo partly drawn)	–
5760 nM	5840 nM	4050 nM	8180 nM	CC(=O)O[C@H]1C=C([C@H](C)[C@H]2CC(C)=C(C)C(=O)O2)[C@@]2(C)CC[C@H]3[C@@H](C[C@H]4O[C@]45[C@@H](OC(=O)CCc4ccccc4)C=CC(=O)[C@]35C)[C@]12O	–
300 nM	230 nM	370 nM	530 nM	C/C=C/C(=O)O[C@H]1C=CC(=O)[C@]2(C)[C@H]3CC[C@]4(C)C([C@H](C)[C@H]5CC(C)=C(C)C(=O)O5)=C[C@H](OC(C)=O)[C@@]4(O)[C@@H]3C[C@H]3O[C@]132	–
310 nM	430 nM	450 nM	760 nM	CC(=O)O[C@H]1C=C([C@H](C)[C@H]2CC(C)=C(C)C(=O)O2)[C@@]2(C)CC[C@H]3[C@@H](C[C@H]4O[C@]45[C@@H](OC(=O)/C=C/c4ccco4)C=CC(=O)[C@]35C)[C@]12O	–

Structure (SMILES)	IC50 (HepG2)	IC50 (HCT-116)	IC50 (HT-29 [3])	IC50 (MCF7)	further results
CC(=O)O[C@H]1[C@@H]2O[C@]2([C@H](C)[C@H]2CC(C)=C(C)C(=O)O2)[C@@]2(C)CC[C@H]3[C@@H](C[C@H]4O[C@]45[C@@H](O)C=CC(=O)[C@]35C)[C@]12O	4660 nM	5040 nM	4550 nM	9360 nM	–

— ChEMBL document CHEMBL4665792 (J Med Chem, 2020)
